Results reported in US12589078B2, “Lipid nanoparticles for delivery of nucleic acids” (CureVac SE, priority 2019, dated 2026).
“And” between values parts separate entries of the source, which are not always exact repeats. Equal values may be shown once. Read-outs that look alike come from different tables or passages of the source.

Legend:
[1] = tested on: rabies virus; format: in vivo, mice; settings: all animals, day 21 after prime
[2] = tested on: tumor antigen Trp2; experiment: Trp2 mRNA vaccination i.d.: T-cell response (TNFα+/IFNγ+ CD4+/CD8+); settings: C57/BL6 mice, day 0, 7, 14
[3] = Particle size and PDI by dynamic light scattering (Malvern Zetasizer Nano); format: physicochemical
[4] = Zeta potential by Laser Doppler Microelectrophoresis; format: physicochemical
[5] = tested on: tumor antigen Trp2; experiment: Trp2 mRNA vaccination i.d.: IgG1/IgG2 endpoint titers (ELISA); settings: C57/BL6 mice, day 0, 7, 14
[6] = tested on: malaria [NANP]7 peptide or C-terminus peptides; experiment: Malaria CSP mRNA vaccination: ELISA endpoint titers; format: in vivo, mice; settings: CSP mRNA i.m., day 35 post prime, Example 22
Source text: The mRNA was further enzymatically capped using ScriptCap™ m7G Capping System (CellScript, Madison,WI., USA) according to the manufacturer's instructions and enzymatically polyadenylated using a commercial polyadenylation kit, resulting in SEQ ID NO:38.
The GN01-LNP formulations were applied on days 0 and 21 intramuscularly (i.m.; musculus tibialis) with doses of RNA, formulations, and control groups as shown in Table Ex-20. A negative control group received vaccinations with an irrelevant RNA, formulated in GN01-LNPs. Serum samples were taken at day 21 and day 35 for ELISA.
ELISA was performed using malaria [NANP]7 peptide or C-terminus peptides for coating. Coated plates were incubated using respective serum dilutions, and binding of specific antibodies to the respective malaria [NANP]7 or C-terminus peptide were detected using biotinylated isotype specific anti-mouse antibodies followed by streptavidin-HRP (horse radish peroxidase) with Amplex™ Red Reagent as substrate. Endpoint titers of antibodies (IgG1, IgG2a) directed against the malaria [NANP]7 or C-terminus peptide were measured by ELISA on day 21 and day 35 post prime. […]
ELISA was performed using malaria [NANP]7 peptide for coating. […] Endpoint titers of antibodies (total IgG or IgG as indicated in the respective Figures) directed against the malaria [NANP]7 peptide were measured by ELISA on day 35 post prime.

Work on `CCCCCCCCC(CCCCCC)COC(=O)CCCC(=O)OCCC1CCN(CCSSCCN2CCC(CCOC(=O)CCCC(=O)OCC(CCCCCC)CCCCCCCC)CC2)CC1` (centres unmarked) [Lipid C2, O1-[2-[1-[2-[2-[4-[2-[5-(2-hexyldecoxy)-5-oxo-pentanoyl]oxyethyl]-1-piperidyl]ethyldisulfanyl]ethyl]-4-piperidyl]ethyl] 05-(2-hexyldecyl) pentanedioate] yielded a VNTs ([1]; single i.m. 5 μg RABV-G-mRNA) of over 0.5 IU/ml.

With `CCN1CCC(CCOC(=O)C(CCSSCCC(NC(=O)CC(=O)Oc2c(C)c(C)c3c(c2C)CCC(C)(CCCC(C)CCCC(C)CCCC(C)C)O3)C(=O)OCCC2CCN(CC)CC2)NC(=O)CC(=O)Oc2c(C)c(C)c3c(c2C)CCC(C)(CCCC(C)CCCC(C)CCCC(C)C)O3)CC1` (centres unmarked) [Lipid C10, VitE-C4DE-CysPipSS] the T-cell responses [2] was “low T-cell responses”, the PDI [3] was 0.50 and 0.34 and the size [3] was 103 nm and 67 nm. For the same compound, the zeta potential [4] was 36.00 mV and 26.00 mV and the “IgG1 and IgG2 titers” value [5] was “stable IgG1 and IgG2 titers”.

With `Cc1c(C)c2c(c(C)c1OC(=O)CCC(=O)OCCC1CCN(CCSCCN3CCC(CCOC(=O)CCC(=O)Oc4c(C)c(C)c5c(c4C)CC[C@@](C)(CCC[C@H](C)CCC[C@H](C)CCCC(C)C)O5)CC3)CC1)CC[C@@](C)(CCC[C@H](C)CCC[C@H](C)CCCC(C)C)O2` [Lipid C26, VitE-C4DE-Piperidine-Thioether] the “IgG1 endpoint titers ([NANP]7 peptide)” value [6] was “very strong humoral immune responses” and the VNTs ([1]; single i.m. 1 μg RABV-G-mRNA) was over 0.5 IU/ml.
